Data: ChEMBL document CHEMBL1136043, “Synthesis of (+)-Lasonolide A: (-)-lasonolide A is the biologically active enantiomer” (2002)

Experiments:
Assay type in all cases: functional
A549 = assay: Concentration required for growth inhibition of human lung carcinoma cell line A549
HCT-116 = assay: Concentration required for growth inhibition human of human colon cancer cell line HCT116
NCI-H460 = assay: Concentration required for growth inhibition of human lung carcinoma cell line NCI-H460

| SMILES | GI50 (A549) [nM] | GI50 (HCT-116) [nM] | GI50 (NCI-H460) [nM] |
| --- | --- | --- | --- |
| C=C(CCC(C)C)COC(=O)[C@@H](O)C/C=C\C[C@H]1O[C@H]2/C=C/C/C=C/C(C)=C\[C@@H]3O[C@H](C/C=C/C=C/C(=O)O[C@@H](C2)[C@]1(C)CO)C[C@@H](O)[C@@H]3C | 6000 | 2000 | 3000 |
| C=C(CCC(C)C)COC(=O)[C@H](O)C/C=C/C[C@@H]1O[C@@H]2/C=C/C/C=C/C(C)=C\[C@H]3O[C@@H](C/C=C/C=C/C(=O)O[C@H](C2)[C@@]1(C)CO)C[C@H](O)[C@H]3C | 2000 | 20 | 40 |
| C=C(CCC(C)C)COC(=O)[C@@H](O)C/C=C\C[C@@H]1O[C@@H]2/C=C\C/C=C/C(C)=C\[C@H]3O[C@@H](C/C=C/C=C/C(=O)O[C@H](C2)[C@@]1(C)CO)C[C@H](O)[C@H]3C | > 10000 | 5000 | 5000 |
| C=C(CCC(C)C)COC(=O)[C@@H](O)C/C=C\C[C@@H]1O[C@@H]2/C=C/C/C=C/C(C)=C\[C@H]3O[C@@H](C/C=C/C=C/C(=O)O[C@H](C2)[C@@]1(C)CO)C[C@H](O)[C@H]3C | 50 | < 3 | 9 |
| C=C(CCC(C)C)COC(=O)[C@@H](O)C/C=C/C[C@@H]1O[C@@H]2/C=C/C/C=C/C(C)=C\[C@H]3O[C@@H](C/C=C/C=C/C(=O)O[C@H](C2)[C@@]1(C)CO)C[C@H](O)[C@H]3C | 3200 | 40 | 100 |
| C=C(CCC(C)C)COC(=O)[C@H](O)C/C=C\C[C@@H]1O[C@@H]2/C=C/C/C=C/C(C)=C\[C@H]3O[C@@H](C/C=C/C=C/C(=O)O[C@H](C2)[C@@]1(C)CO)C[C@H](O)[C@H]3C [LASONOLIDE A] | 20 | < 3 | < 3 |
